Data as given in patent publication US20050100507A1, “Chemotactic peptide antagonists for imaging sites of inflammation” (Bracco Imaging S.p.A., priority 1998, published 2005).
Square brackets hold non-standard residues; d marks the D form. Ends that are not written are not given here. Peptide text beside a SMILES is read from it. * marks the point of attachment. 3‑but‑1‑enoxycarbonyl = 3-but-1-enoxycarbonyl (N-terminal capping group); 2‑quinoxazoyl = 2-quinoxazoyl (N-terminal capping group); Adamantane1carbonyl = O=C(C12CC3CC(CC(C3)C1)C2)*; N‑phenyl‑N‑methylcarbamoyl = CN(C(=O)*)c1ccccc1; trans‑cinnamoyl = O=C(/C=C/c1ccccc1)*; Cyclopropanecarbonyl = O=C(C1CC1)*; iso‑Boc = not defined here; Nle = CCCC[C@H](N)C(=O)O; 2Furoyl = O=C(c1ccco1)*; Boc = CC(C)(C)OC(=O)*; For = O=C*

Experiments:
elicited rat PMNs [1] = assay type: cell-based; details: for EC50: 4 h; for % Control (1 uM) / % Control (10 uM): MPO release, PMNs without fMLF, ± S.E.M.; for % Control (1 uM): test peptide 1 uM; for % Control (10 uM): test peptide 10 uM
Procedure: (§1) Animals were sacrificed via administration of CO2 4 hours following peritoneal injection of 10 mL of 0.5% (w/v) oyster glycogen warmed to room temperature. Leukocyte harvesting via peritoneal lavage was performed using 20 mL of Hanks' buffered salt solution (HBSS−) containing 10 mM ethylene-diaminetetra-acetic acid (EDTA) disodium salt followed by a second lavage with 10 mL of HBSS− containing 10 mM EDTA. Exactly the same technique was performed on all rats with washes of the peritoneum prior to aspiration of samples approximating 1 minute. The volume of fluid recovered from each rat was approximately 20-25 mL and bloody lavages visibly containing significant red blood cell (RBC) populations were discarded.
(§2) Neutrophils isolated by peritoneal lavage were washed twice with 1 mL of HBSS− (without calcium chloride, magnesium chloride and magnesium sulfate) and centrifuged for ten minutes at 2000 rpms following each wash. PMNs utilized in functional assays were centrifuged at 25° C. while those used in binding assays were centrifuged at 4° C. to prevent internalization. A cold H2O RBC lysis was then performed with the addition of 9 mL of sterile ice-cold H2O and 1 mL of phosphate buffered saline (PBS) solution containing 0.1 M phosphate buffer, 0.027 M KCl and 1.37 M NaCl following resuspension of the sample in 1 mL of HBSS. Centrifugation was subsequently performed for ten minutes at 1600 rpms. White blood cell (WBC) differential stain containing saline, 2% acidic acid and phenol violet dye was used to identify the neutrophil population and trypan blue exclusion was used to determine viability of cells. As previously reported, 98% of leukocytes were neutrophils and approximately 95% of the cells were viable (Chen et al., 1996).
(§3) 0.5×10^6 PMNs per sample were incubated in 96-well Millipore Multiscreen 0.65 um filter plates. In a final volume of 150 uL, 50 uL of the respective fMLP analogues (10 uM to 1 pM) and/or fMLP (10 uM to 1.0 uM) were incubated with isolated PMNs pre-treated with cytochalasin B (5 ug/mL) for 10 minutes. Following a 30 minute incubation period at room temperature, the supernatant was collected into a 96-well polypropylene plate with the Millipore vacuum apparatus. A stock solution of o-phenylenediamine (OPD) was made to contain 2.5 mg of OPD, 5 ul of H2O2 and 10 mL HBSS+ and supernatant samples were subsequently incubated with 50 uL of OPD solution. The reaction was stopped after 2 minutes by the addition of 2.5M H2SO4. Photometric analysis was performed with the Thermomax Microplate Reader with optical density (O.D.490) values being read at a wavelength of 490 nm. Absorbance was measured against a blank containing 150 μl of HBSS+ which was subtracted from wells containing cells and the various treatments. MPO release was expressed as a percentage of the total release of myeloperoxidase in control wells containing cells ±fMLF.
(§4) The curve-fitting program Prism was used to calculate KD, IC50 and EC50 values by fitting data to the one-site binding equations A, B and C respectively. • A. Equation: One site binding (hyperbola) Y=Bmax*X/(KD+X) • B. Equation: One site competition Y=Bottom+(Top−Bottom)/(1+10^(X−LogIC50)); with x=log (concentration) and y=binding • C. […] Additionally, Graph fit software was used to perform Scatchard analysis of saturation binding data and to confirm KD and Bmax values generated by Prism software.

Rat FPR = target: T1, Rat FPR (Rattus norvegicus, UniProt D4A7Q2); experiment: Competition binding with 6 nM 3H-fMLF to elicited rat PMNs; details: 6 nM 3H-fMLF, result in words; for competition binding of N-terminal modified NleLFK peptides (FIG. 8): peptides at 1 uM and 10 uM
T1 construct: endogenous in cells; host or cells: glycogen-elicited peritoneal neutrophils (PMNs) of Sprague-Dawley rats
T1 sequence (D4A7Q2 1-355): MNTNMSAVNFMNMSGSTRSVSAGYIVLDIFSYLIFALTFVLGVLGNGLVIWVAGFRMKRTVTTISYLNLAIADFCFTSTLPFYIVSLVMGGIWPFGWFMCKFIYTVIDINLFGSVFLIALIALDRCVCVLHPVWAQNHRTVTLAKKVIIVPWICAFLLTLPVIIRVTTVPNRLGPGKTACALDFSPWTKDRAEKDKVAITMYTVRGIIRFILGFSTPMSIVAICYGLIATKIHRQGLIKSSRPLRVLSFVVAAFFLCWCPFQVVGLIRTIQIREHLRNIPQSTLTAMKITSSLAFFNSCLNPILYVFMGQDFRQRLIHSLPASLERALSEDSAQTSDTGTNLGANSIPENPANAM
Procedure: as §1, §2
Competition binding assays for N-terminal capping groups and Re-libraries were conducted with 6 nM ^3H-fMLP in addition to the unlabelled competing analogue added at 1.0 uM and 10 uM to each well. […] Total binding in the competition assays was assessed in the presence of 1.0×10^6 PMNs per sample while non-specific binding was determined in the absence of cells. Each condition was performed in quadruplicate. Total activity added to each sample was determined from cpms obtained from a sample containing 6 nM ^3H-fMLF. Data was expressed as specific binding in fmols and converted to percent of total ^3H-fMLF binding (% control).
After a 1 hour incubation period at 4° C., the samples were harvested with the Tomtec Mach III Cell Harvester by vacuum aspiration onto 1.5 um pore size Skatron glass-fibre filter mats pre-treated with 0.1% polyethylenimine (w/v) for approximately 24 hours. Sample wells received three consecutive 12 second washes with 0.9% saline solution and 5 mL of liquid scintillation fluid was added to collected filters. Filters were counted for 2 minutes in the Beckman β-counter following exposure to scintillation fluid for 15 hours. Data was expressed in terms of specific binding in fmols converted to percent of total ^3H-fMLF binding (% control).
as §4

elicited rat PMNs [2] = experiment: Myeloperoxidase release in elicited rat PMNs co-stimulated with 0.1 uM fMLF; assay type: cell-based; details: for antagonist function on MPO release in fMLF stimulated rat PMNs: 0.1 uM fMLF, inhibition at 10 uM, result in words; for % Control MPO release (1 uM capping group + 0.1 uM fMLF): 1 uM test peptide + 0.1 uM fMLF; for % Control MPO release (1 uM capping group + 0.1 uM fMLF) / % Control MPO Release (10 uM capping group + 0.1 uM fMLF): ± S.E.M.; for % Control MPO Release (10 uM capping group + 0.1 uM fMLF): 10 uM test peptide + 0.1 uM fMLF
Procedure: as §1, §2
as §3, with “In a final volume of 150 uL, 50 uL of the respective fMLP analogues (10 uM to 1 pM) and/or fMLP (10 uM to 1.0 uM) were incubated with isolated PMNs pre-treated with cytochalasin B (5 ug/mL) for 10 minutes.” left out

Molecule	% Control (1 uM) (elicited rat PMNs [1]) [% control]	% Control (10 uM) (elicited rat PMNs [1]) [% control]	further results
CSCC[C@H](NC=O)C(=O)N[C@@H](CC(C)C)C(=O)N[C@@H](Cc1ccccc1)C(=O)O [fMLF, N-formyl-methionyl-leucyl-phenylalanine, reference compound]			EC50 (elicited rat PMNs [1]): 110 nM
CSCC[C@H](NC=O)C(=O)N[C@@H](CC(C)C)C(=O)N[C@@H](Cc1ccccc1)C(=O)N[C@@H](CCCCN)C(=O)O [fMLFK, N-formyl-methionyl-leucyl-phenylalanyl-lysine, reference compound] (For-MLFK-OH)			EC50 (elicited rat PMNs [1]): 140 nM
Capping Group 2: 2-methoxyacetyl N-terminal capping group attached to peptide NleLFK ({2‑methoxyacetyl}-[Nle]LFK)	95.0 ± 15.7	97.1 ± 37.1	
Capping Group 3: Furoyl N-terminal capping group attached to peptide NleLFK (2Furoyl-[Nle]LFK)	93.0 ± 9.0	102.5 ± 9.0	
Capping Group 4: Phenylthioacetyl N-terminal capping group attached to peptide NleLFK (phenylthioacetyl-[Nle]LFK)	138.7 ± 28.6	119.7 ± 20.3	
Capping Group 7: 3-but-1-enoxycarbonyl N-terminal capping group attached to peptide NleLFK ({3‑but‑1‑enoxycarbonyl}-[Nle]LFK)	133.8 ± 13.3	229.3 ± 13.3	
Capping Group 10: N-phenyl-N-methylcarbamoyl N-terminal capping group attached to peptide NleLFK ({N‑phenyl‑N‑methylcarbamoyl}-[Nle]LFK)	94.7 ± 20.4	68.0 ± 17.4	competition binding of N-terminal modified NleLFK peptides (FIG. 8) (Rat FPR): did not significantly decrease the amount of ^3H-fMLF binding; antagonist function on MPO release in fMLF stimulated rat PMNs (elicited rat PMNs [2]): exhibited antagonist function in fMLF stimulated cells; % Control MPO release (1 uM capping group + 0.1 uM fMLF) (elicited rat PMNs [2]): 171.2 ± 6.3 % control; % Control MPO Release (10 uM capping group + 0.1 uM fMLF) (elicited rat PMNs [2]): 121.3 ± 23.9 % control
Capping Group 12: 2-acetamido-5-thiazolesulfonyl N-terminal capping group attached to peptide NleLFK ({2‑acetamido‑5‑thiazolesulfonyl}-[Nle]LFK)	117.5 ± 7.8	175.5 ± 12.0	
Capping Group 13: Adamantylcarbonyl N-terminal capping group attached to peptide NleLFK (Adamantane1carbonyl-[Nle]LFK)	70.5 ± 14.9	71.7 ± 11.2	competition binding of N-terminal modified NleLFK peptides (FIG. 8) (Rat FPR): did not significantly decrease the amount of ^3H-fMLF binding; antagonist function on MPO release in fMLF stimulated rat PMNs (elicited rat PMNs [2]): exhibited antagonist function in fMLF stimulated cells; % Control MPO release (1 uM capping group + 0.1 uM fMLF) (elicited rat PMNs [2]): 131.6 ± 30.9 % control; % Control MPO Release (10 uM capping group + 0.1 uM fMLF) (elicited rat PMNs [2]): 128.6 ± 40.9 % control
Capping Group 14: 2-quinoxazoyl N-terminal capping group attached to peptide NleLFK ({2‑quinoxazoyl}-[Nle]LFK)	117.2 ± 18.6	129.8 ± 6.0	antagonist function on MPO release in fMLF stimulated rat PMNs (elicited rat PMNs [2]): significant inhibition; % Control MPO release (1 uM capping group + 0.1 uM fMLF) (elicited rat PMNs [2]): 323.2 ± 16.8 % control; % Control MPO Release (10 uM capping group + 0.1 uM fMLF) (elicited rat PMNs [2]): 239.8 ± 9.0 % control
Capping Group 15: trans-cinnamoyl N-terminal capping group attached to peptide NleLFK ({trans‑cinnamoyl}-[Nle]LFK)	133.1 ± 10.3	195.8 ± 14.3	
N-t-BocMLFK: known antagonist used as standard in MPO release assay (Boc-MLFK) [reference compound]	89.8 ± 32.5	86.7 ± 31.1	
cycloproylcarbonyl-NleLFK (Cyclopropanecarbonyl-[Nle]LFK) [Capping Group 17]	108.0 ± 14.5	91.8 ± 16.3	inhibition of 3H-fMLF binding at 10 uM compared with iso-BocMLFK (FIG. 8) (Rat FPR; peptide 10 uM): inhibited ^3H-fMLF binding to a degree comparable with known antagonist iso-BocMLFK; competition binding of N-terminal modified NleLFK peptides (FIG. 8) (Rat FPR; listed as 17): do not nullify binding affinity; competition binding of N-terminal modified NleLFK peptides (FIG. 8) (Rat FPR; listed as cycloproylcarbonyl-NleLFK): inhibit ^3H-fMLF binding
iso-BocMLFK: known antagonist, fMLP peptide analogue synthesized in-house ({iso‑Boc}-MLFK; reading uncertain) [reference compound]	99.6 ± 16.5	94.7 ± 20.2	antagonist function on MPO release in fMLF stimulated rat PMNs (elicited rat PMNs [2]): significantly inhibiting fMLF-stimulated MPO release; % Control MPO release (1 uM capping group + 0.1 uM fMLF) (elicited rat PMNs [2]): 215.4 ± 66.3 % control; % Control MPO Release (10 uM capping group + 0.1 uM fMLF) (elicited rat PMNs [2]): 179.9 ± 50.6 % control
